Data published in paper PMC3692405, “Disease-associated mutations in CNGB3 promote cytotoxicity in photoreceptor-derived cells” (Molecular Vision, 2013).

Test system: 661W cells expressing CNG channels with the F525N mutation
Assay: LIVE/DEAD Viability/Cytotoxicity Kit staining, cells expressing F525N
Type: cell-based, mouse
Conditions: 0.1 µM CPT-cGMP, 24 h; compared to WT-expressing or untreated F525N-expressing cells
Method: The viability of 661W cells transfected with WT or mutant CNG channels was also assessed using the LIVE⁄DEAD® Viability⁄Cytotoxicity Kit (Life Technologies) according to the manufacturer’s protocol. Briefly, cells were transfected under the conditions described above and plated into 4-well multi-chamber Lab-Tek glass slides (Nalge Nunc International, Rochester, NY). At the end of cyclic nucleotide treatment, cells were washed with PBS three times and stained with 2 μM calcein AM and 4 μM ethidium homodimer-1 solution at room temperature for 30 min. Fluorescence microscopy was then performed to visualize the live and dead cells. Imaging of cells was performed at the Washington State University Franceschi Microscopy and Imaging Center. Images were obtained using a 10× objective on an Axiovert 200M inverted microscope equipped with a Zeiss LSM 510 confocal laser-scanning system and a krypton-argon laser. Fluorescence was measured using an excitation wavelength of 488 nm, and a 522 DF 32 emission filter for green fluorescence and 635 DF 32 emission filter for red fluorescence.

With `Nc1nc2c(nc(Sc3ccc(Cl)cc3)n2[C@@H]2O[C@@H]3COP(=O)(O)O[C@H]3[C@H]2O)c(=O)[nH]1` [CPT-cGMP, 8-(4-chlorophenylthio) guanosine 3′,5′-cyclic monophosphate] as the compound, how does the “damaged/dead and intact/viable cells (calcein AM / ethidium homodimer-1 fluorescence)” value read?
The value was “more damaged/dead cells (red fluorescence) and less intact/viable cells”.
